Measured values: PMC6272185 (Molecules, 2015)
Converted amounts (≈) assume the structure as drawn. Read-outs that look alike come from different tables or passages of the source.

How the values were obtained:
M. tuberculosis H37Rv = assay: microbe, parasite or virus in culture; format: cell-based, Mycobacterium tuberculosis; conditions: Mycobacterium tuberculosis
[1] = system: NO production by LPS-stimulated RAW 264.7 macrophages; assay: Inhibition of NO production by LPS-stimulated macrophages (Griess); format: cell-based, murine; conditions: mean ± SD, n = 3
[2] = system: IL-1β production by LPS-stimulated RAW 264.7 macrophages; assay: Inhibition of IL-1β production by LPS-stimulated macrophages (ELISA); format: cell-based, murine; conditions: Mus musculus, RAW264.7, 24 h, read-out: IC50 IL-1β
Protocol: (§1) Murine RAW 264.7 macrophage cell line (American Type Culture Collection, Manassas, VA, USA), was cultured in Dulbecco’s modified Eagle’s medium (DMEM-F12) supplemented with 10% Fetal Bovine Serum (FBS) and gentamicin (50 µg/mL) in 5% CO2 atmosphere at 37 °C. For experiments, the cells were seeded in 96-well plates (1 × 10^5 cells/well) and incubated for 24 h at 37 °C. For macrophage stimulation, the cell cultures were treated with LPS (1 µg/mL) and incubated for additional 24 h in the presence or absence of the chalcone samples (samples 1–41) that were used at concentrations of 100, 20, 4 and 0.8 µg/mL. In some experiments, a nitric oxide (NO) inhibitor, L-NMMA (20 μg/mL), was used as a positive control of NO inhibition, and a non-steroidal anti-inflammatory drug indomethacin, known to inhibit production of prostaglandins, was used as a positive control of PGE2 inhibition.
(§2) The frozen culture supernatants samples were thawed and immediately analyzed using commercially available enzyme-linked immunosorbent assay (ELISA) kits to measure TNF-α, IL-1β (BD Biosciences) and PGE2 (R&D Systems, Minneapolis, MN, USA), according to the manufacturer’s instructions. Standard curves for each mediator were generated using reference cytokine concentrations supplied by the manufacturer. Nitric oxide (NO) generation was assessed by the Griess method to measure nitrites, which are stable breakdown NO products.

M. bovis BCG = assay: microbe, parasite or virus in culture; format: cell-based, Mycobacterium bovis BCG; conditions: for MIC50 / MIC90: Mycobacterium tuberculosis variant bovis BCG, BCG, 168 h; for MIC50: read-out: MIC50 M. bovis BCG; for MIC90: read-out: MIC90 M. bovis BCG
[3] = system: PGE2 production by LPS-stimulated RAW 264.7 macrophages; assay: Inhibition of PGE2 production by LPS-stimulated macrophages (ELISA); format: cell-based, murine; conditions: Mus musculus, RAW264.7, 24 h, read-out: IC50 PGE2
Protocol: as §1, §2

[4] = system: TNF-α production by LPS-stimulated RAW 264.7 macrophages; assay: Inhibition of TNF-α production by LPS-stimulated macrophages (ELISA); format: cell-based, murine; conditions: Mus musculus, read-out: IC50 TNF-α
[5] = Macrophage cytotoxicity, LDH release assay; format: cell-based, murine; conditions: mouse, RAW 264.7 macrophages stimulated with LPS; LPS-stimulated RAW 264.7, LDH release; mean ± SD, n = 3
[6] = system: RAW 264.7 macrophages infected with M. tuberculosis H37Rv; assay: Toxicity for infected macrophages, LDH assay; format: cell-based, murine; conditions: Mus musculus, RAW264.7, 96 h; infected RAW 264.7, 4 days treatment; Figure 3D
Protocol: Cytotoxic effects of chalcone samples on RAW 264.7 cell viability in cultures stimulated with LPS were determined using the LDH (lactate dehydrogenase) release assay as previously described. Cytoplasmic enzyme LDH release into cell culture supernatants was detected using a commercial LDH kit (Doles, GO, Brazil). Cell death was expressed as percentage of LDH release, which was calculated using the following formula: percentage of LDH release = 100 × (test LDH release − spontaneous release)/(maximum release − spontaneous release). The maximum release was determined following dissolution of cell monolayers using 1% (vol/vol) Triton X-100. The spontaneous release was determined in supernatants from cultures incubated in the presence of LPS and DMSO, used as a solvent for chalcone samples.
(§3) RAW 264.7 macrophages were plated (1 × 10^5 cells/well) in antibiotic-free DMEM-F12 medium supplemented with 10% fetal bovine serum and incubated for 24 h. Prior to infection, mycobacterial suspensions were sonicated for 1 minute to disperse clumps and optical densities were adjusted to 0.1. The macrophage cultures were infected at a MOI of 1:1 (macrophage: bacterium). Phagocytosis was allowed to progress for 3 h. After 3 h, extracellular mycobacteria were removed by washing with PBS 1X and the infected cell monolayers were treated for 4 days with chalcone samples or rifampicin. Macrophage viability was monitored by LDH assay and was over 80% in all experiments. On day 4 after infection, cells were lysed cells with 1% saponin to release intracellular bacteria. Lysate aliquots were diluted 10-fold in PBS, plated in triplicates on 7H10 agar plates and incubated at 37 °C. After 21 days, total CFU were determined.

M. tuberculosis M299 = assay: microbe, parasite or virus in culture; format: cell-based, Mycobacterium tuberculosis; conditions: for MIC50 / MIC90: Mycobacterium tuberculosis, M299, 120 h
[7] = system: M. tuberculosis strain H37Rv in RAW 264.7 macrophages; assay: Intracellular growth of M. tuberculosis H37Rv in infected macrophages (CFU); format: cell-based, Mycobacterium tuberculosis; conditions: Mycobacterium tuberculosis, H37RV, 96 h, infected RAW 264.7, MOI 1:1, 4 days, Figure 3C
Protocol: as §3

[8] = system: iNOS expression in RAW 264.7 macrophages; assay: iNOS expression by western blot in LPS-stimulated macrophages; format: cell-based, murine; conditions: 20 µg/mL, LPS 1 µg/mL, 24 h
Protocol: (§4) RAW 264.7 macrophages were plated in Petri dishes (2 × 10^7 cells·mL^−1) and incubated for 24 h at 37 °C in 5% CO2 atmosphere. […] The resulted cellular monolayers were washed with PBS 1×, scraped and resuspended in PBS 1×, transferred and centrifuged to obtain cell pellets. The cells were lysed in buffer (10% SDS, 20% glycerol, 5% 2-mercaptoethanol, 2% bromophenol blue and 1 M Tris HCl, pH 6.8, containing protease inhibitors). Protein concentrations were estimated by Bradford method. For western blot analysis, cellular extract samples (60 µg) were submitted to 10% SDS–polyacrylamide gel electrophoresis under […] conditions and transferred to nitrocellulose membranes (Amersham Pharmacia Biotech, Uppsala, Sweden). After blocking with PBS-T (0.5% Tween-20) containing 2.5% (w/v) bovine serum albumin, the membranes were incubated with antibodies against iNOS (1:1000) and COX-2 (1:500) for 1 h at room temperature. After incubation period, the membranes were washed followed by treatment with horseradish peroxidase-conjugated secondary antibody. The resulting membranes were developed using diaminobenzidine/H2O2 as a substrate for peroxidase. In all electrophoresis experiments, a protein standard ladder (Full Range Rainbow-GE Healthcare, Piscataway, NJ, USA) was used to estimate proteins molecular size. Protein bands densitometric analysis was performed using ImageJ software for Windows (NIH, Bethesda, MD, USA). The value for stimulated condition (LPS- treated cells) was set as 1 and other conditions were recalculated correspondingly to allow ratio comparisons.

RAW 264.7 macrophages = assay: Macrophage cytotoxicity, LDH release assay; format: cell-based, murine; conditions: LDH release
[9] = system: COX-2 expression in RAW 264.7 macrophages; assay: COX-2 expression by western blot in LPS-stimulated macrophages; format: cell-based, murine; conditions: 20 µg/mL, LPS 1 µg/mL, 24 h
Protocol: as §4

[10] = H37RV, 120 h, read-out: MIC50 M. tuberculosis H37Rv
[11] = Table 5, same values as M. tuberculosis H37Rv in Table 3, read-out: MIC50
[12] = Mus musculus, RAW264.7, 24 h, LPS (1 µg/mL)-stimulated RAW 264.7, 24 h, read-out: IC50 NO
[13] = RAW264.7, LPS (1 µg/mL)-stimulated RAW 264.7, 24 h, mean ± SD, n = 3
[14] = Mus musculus, RAW264.7, 24 h, read-out: IC50 NO, LPS (1 µg/mL)-stimulated RAW 264.7, 24 h

Work on `COc1ccc(C(=O)/C=C/c2ccc(F)cc2)cc1` [Chalcone 25] yielded an MIC90 (M. tuberculosis H37Rv; H37RV, 120 h) of 366.1 ± 3.6 µM (≈ 93.8 µg/mL), an MIC50 (M. tuberculosis H37Rv; [10]) of 25.1 ± 5.2 µM (≈ 6.43 µg/mL) and an MIC50 (M. tuberculosis H37Rv; [11]) of 25.1 ± 5.2 µM (≈ 6.43 µg/mL). The IC50 [1, 12] was 41.2 ± 4.6 µM, the IC50 [2] was greater than 390 µM and the MIC50 (M. bovis BCG) was 15.8 ± 5.2 µM (≈ 4.05 µg/mL). For the same molecule, the MIC90 (M. bovis BCG) was 228 ± 5.8 µM (≈ 58.5 µg/mL), the IC50 [3] was 57.5 ± 2.1 µM and the IC50 [4, 13] was greater than 390 µM. It also gave an IC50 [5] greater than 390 µM, an IC50 [6] of 264 ± 4.4 µM and an MIC50 (M. tuberculosis M299) of 18.5 ± 3.6 µM (≈ 4.74 µg/mL). It also gave an MIC90 (M. tuberculosis M299) of 366.9 ± 0.3 µM (≈ 94 µg/mL) and an MIC50 [7] of 49.1 ± 1.7 µM (≈ 12.6 µg/mL).

`O=C(/C=C/c1ccc(Cl)cc1)c1ccccc1Cl` [Chalcone 33] gave an MIC90 (M. tuberculosis H37Rv; H37RV, 120 h) of 356 ± 4.9 µM (≈ 98.6 µg/mL), an MIC50 (M. tuberculosis H37Rv; [10]) of 36.9 ± 4.5 µM (≈ 10.2 µg/mL) and an MIC50 (M. tuberculosis H37Rv; [11]) of 36.9 ± 4.5 µM (≈ 10.2 µg/mL). The “inhibition of iNOS expression” value [8] was “almost completely inhibit”, the IC50 [2] was 287 ± 3.6 µM and the MIC50 (M. bovis BCG) was 45.7 ± 5.4 µM (≈ 12.7 µg/mL). For the same molecule, the MIC90 (M. bovis BCG) was greater than 361 µM, the IC50 [3] was 75.1 ± 3.5 µM and the IC50 [4, 13] was 166 ± 5.2 µM. For the same molecule, the IC50 [5] was 351 ± 5 µM, the IC50 [6] was 271.7 ± 2.7 µM and the MIC50 [7] was 248 ± 3.7 µM (≈ 68.7 µg/mL).

With `O=C(/C=C/c1ccccc1)c1ccc(Br)cc1` [Chalcone 8] the MIC90 (M. tuberculosis H37Rv; H37RV, 120 h) was 326 ± 3.3 µM (≈ 93.6 µg/mL), the MIC50 (M. tuberculosis H37Rv; [10]) was 10.5 ± 3.8 µM (≈ 3.02 µg/mL) and the MIC50 (M. tuberculosis H37Rv; [11]) was 10.5 ± 3.8 µM (≈ 3.02 µg/mL). It also gave an IC50 [1, 12] of 46.4 ± 2.3 µM, an MIC50 (M. bovis BCG) of 13.4 ± 4 µM (≈ 3.85 µg/mL) and an MIC90 (M. bovis BCG) of 33.7 ± 4.6 µM (≈ 9.68 µg/mL). The “MIC90 M. bovis BCG” value (M. bovis BCG; culture, 7 days, MTT) was 33.7 ± 4.6 µM (≈ 9.68 µg/mL), the IC50 [4, 13] was 66.9 ± 4.5 µM and the IC50 [5] was 191 ± 5.2 µM. The IC50 [6] was 66.1 ± 1.5 µM, the MIC50 (M. tuberculosis M299) was 10.2 ± 4.9 µM (≈ 2.93 µg/mL) and the MIC90 (M. tuberculosis M299) was 344.7 ± 0.4 µM (≈ 99 µg/mL). The MIC50 [7] was 13.5 ± 0.6 µM (≈ 3.88 µg/mL).

Work on `COc1ccc(/C=C/C(=O)c2ccc(OC)cc2)cc1` [Chalcone 29] yielded an IC50 ([1]; LPS (1 µg/mL)-stimulated RAW 264.7, 24 h, read-out: IC50 NO) of 13.1 ± 4.2 µM, an IC50 [1, 14] of less than 21 µM and an MIC50 (M. bovis BCG) of 32.5 ± 5.4 µM (≈ 8.72 µg/mL). For the same molecule, the MIC90 (M. bovis BCG) was 339.5 ± 3.2 µM (≈ 91.1 µg/mL), the IC50 [4, 13] was greater than 373 µM and the “cytotoxicity profile” value (RAW 264.7 macrophages) was “worst cytotoxicity profiles”. The IC50 [5] was 93.9 ± 4.9 µM.

With `O=C(/C=C/c1ccccc1)c1ccccc1Cl` [Chalcone 31] the “abrogation of COX-2 expression” value [9] was “most potent in abrogation”, the “inhibition of iNOS expression” value [8] was “almost completely inhibit” and the IC50 [2] was greater than 412 µM. For the same molecule, the MIC50 (M. bovis BCG) was 90.9 ± 5.5 µM (≈ 22.1 µg/mL), the MIC90 (M. bovis BCG) was 330 ± 4.2 µM (≈ 80.1 µg/mL) and the IC50 [3] was 10.2 ± 0.5 µM. For the same molecule, the IC50 ([4]; RAW264.7, 24 h) was greater than 412 µM and the IC50 [5] was 267 ± 4.5 µM.

`O=C(/C=C/c1ccccc1Cl)c1ccc(Br)cc1` [Chalcone 15] gave an MIC90 (M. tuberculosis H37Rv; H37RV, 120 h) of 288 ± 5.5 µM (≈ 92.6 µg/mL), an MIC50 (M. tuberculosis H37Rv; [10]) of 17.1 ± 3.8 µM (≈ 5.5 µg/mL) and an MIC50 (M. tuberculosis H37Rv; [11]) of 17.1 ± 3.8 µM (≈ 5.5 µg/mL). For the same molecule, the IC50 [1, 14] was 36.7 µM, the IC50 [2] was greater than 311 µM and the MIC50 (M. bovis BCG) was 13.8 ± 4.4 µM (≈ 4.44 µg/mL). The MIC90 (M. bovis BCG) was 265 ± 4.5 µM (≈ 85.3 µg/mL), the IC50 [3] was 32.8 ± 3.7 µM and the IC50 ([4]; RAW264.7, 24 h) was greater than 311 µM. The IC50 [5] was 256 ± 3.8 µM, the IC50 [6] was 214 ± 2.5 µM and the “activity against M299 compared with H37Rv” value (M. tuberculosis M299) was “significantly less potent”. For the same molecule, the MIC50 (M. tuberculosis M299) was greater than 311 µM, the MIC90 (M. tuberculosis M299) was greater than 311 µM and the MIC50 [7] was 242 ± 4.4 µM (≈ 77.9 µg/mL).
